Assay results reported in ChEMBL document CHEMBL3045682, “Synthesis of some new indolo[2,3-c]isoquinolinyl pyrazoles, -1,3,4-oxadiazoles and their biological activities” (2013).

Columns and labels:
Assay type in all cases: functional
[1] = test system: Bacillus subtilis; experiment: Antibacterial activity against Bacillus subtilis assessed as growth inhibition at 1 mg/ml by cup-plate method; details: read-out: IZ
[2] = test system: Aspergillus flavus; experiment: Antifungal activity against Aspergillus flavus assessed as growth inhibition at 1 mg/ml by cup-plate method; details: read-out: IZ
[3] = test system: Escherichia coli; experiment: Antibacterial activity against Escherichia coli assessed as growth inhibition at 1 mg/ml by cup-plate method; details: read-out: IZ
[4] = test system: Aspergillus niger; experiment: Antifungal activity against Aspergillus niger assessed as growth inhibition at 1 mg/ml by cup-plate method; details: read-out: IZ
[5] = test system: Aspergillus fumigatus; experiment: Antifungal activity against Aspergillus fumigatus assessed as growth inhibition at 1 mg/ml by cup-plate method; details: read-out: IZ
[6] = test system: Pseudomonas putida; experiment: Antibacterial activity against Pseudomonas putida assessed as growth inhibition at 1 mg/ml by cup-plate method; details: read-out: IZ
[7] = test system: Radical scavenging activity; experiment: Antioxidant activity assessed as DPPH free radical scavenging activity at 50 ug/ml by spectrophotometric analysis relative to control
[8] = test system: Radical scavenging activity; experiment: Antioxidant activity assessed as DPPH free radical scavenging activity at 25 ug/ml by spectrophotometric analysis relative to control
[9] = test system: Radical scavenging activity; experiment: Antioxidant activity assessed as DPPH free radical scavenging activity at 100 ug/ml by spectrophotometric analysis relative to control
[10] = test system: Radical scavenging activity; experiment: Antioxidant activity assessed as DPPH free radical scavenging activity at 75 ug/ml by spectrophotometric analysis relative to control

**Q.** How did the zone of inhibition at 1000 µg/mL [1] turn out when `O=C(n1nc(-c2ccccc2)cc1-c1ccccc1)n1c(=O)c2ccccc2c2c3cc(Cl)ccc3[nH]c21` was run?
**A.** 13 mm

**Q.** And the zone of inhibition at 1000 µg/mL [2]?
**A.** 9 mm

**Q.** What about the zone of inhibition at 1000 µg/mL [3] of the same compound?
**A.** 10 mm

**Q.** What about the zone of inhibition at 1000 µg/mL [4] of the same compound?
**A.** 4 mm

**Q.** And the zone of inhibition at 1000 µg/mL [5]?
**A.** 15 mm

**Q.** And the zone of inhibition at 1000 µg/mL [6]?
**A.** 18 mm

**Q.** How did the zone of inhibition at 1000 µg/mL [1] turn out when `COc1ccc2[nH]c3c(c2c1)c1ccccc1c(=O)n3-c1n[nH]c(=S)o1` was run?
**A.** 10 mm

**Q.** And the Activity [7]?
**A.** 67.8%

**Q.** And the Activity [8]?
**A.** 60.8%

**Q.** What about the zone of inhibition at 1000 µg/mL [2] of the same compound?
**A.** 10 mm

**Q.** And the zone of inhibition at 1000 µg/mL [3]?
**A.** 13 mm

**Q.** And the zone of inhibition at 1000 µg/mL [4]?
**A.** 10 mm

**Q.** What about the zone of inhibition at 1000 µg/mL [5] of the same compound?
**A.** 15 mm

**Q.** What about the zone of inhibition at 1000 µg/mL [6] of the same compound?
**A.** 7 mm

**Q.** Which zone of inhibition at 1000 µg/mL [1] does the source give for `O=c1c2ccccc2c2c3cc(Cl)ccc3[nH]c2n1-c1n[nH]c(=S)o1` here?
**A.** 19 mm

**Q.** And the Activity [9]?
**A.** 68.9%

**Q.** What about the Activity [7] of the same compound?
**A.** 69.8%

**Q.** And the Activity [8]?
**A.** 68.3%

**Q.** What about the zone of inhibition at 1000 µg/mL [2] of the same compound?
**A.** 16 mm

**Q.** And the zone of inhibition at 1000 µg/mL [3]?
**A.** 18 mm

**Q.** And the zone of inhibition at 1000 µg/mL [4]?
**A.** 17 mm

**Q.** And the Activity [10]?
**A.** 58%

**Q.** What about the zone of inhibition at 1000 µg/mL [5] of the same compound?
**A.** 17 mm

**Q.** What about the zone of inhibition at 1000 µg/mL [6] of the same compound?
**A.** 20 mm

**Q.** What does the source list for `Cc1cc(C)n(C(=O)n2c(=O)c3ccccc3c3c4cc(Cl)ccc4[nH]c32)n1`?
**A.** zone of inhibition at 1000 µg/mL [1]: 11 mm; zone of inhibition at 1000 µg/mL [2]: 11 mm; zone of inhibition at 1000 µg/mL [3]: 9 mm; zone of inhibition at 1000 µg/mL [4]: 16 mm; zone of inhibition at 1000 µg/mL [5]: 15 mm; zone of inhibition at 1000 µg/mL [6]: 19 mm

**Q.** Which results are given for `Cc1ccc2[nH]c3c(c2c1)c1ccccc1c(=O)n3-c1n[nH]c(=S)o1`?
**A.** zone of inhibition at 1000 µg/mL [1]: 11 mm; Activity [7]: 65.4%; Activity [8]: 57.7%; zone of inhibition at 1000 µg/mL [2]: 13 mm; zone of inhibition at 1000 µg/mL [3]: 11 mm; zone of inhibition at 1000 µg/mL [4]: 8 mm; zone of inhibition at 1000 µg/mL [5]: 10 mm; zone of inhibition at 1000 µg/mL [6]: 19 mm

**Q.** With `COc1ccc2[nH]c3c(c2c1)c1ccccc1c(=O)n3C(=O)N1N=C(C)CC1=O` as the compound, how does the zone of inhibition at 1000 µg/mL [1] read?
**A.** 10 mm

**Q.** And the zone of inhibition at 1000 µg/mL [2]?
**A.** 7 mm

**Q.** What about the zone of inhibition at 1000 µg/mL [3] of the same compound?
**A.** 17 mm

**Q.** What about the zone of inhibition at 1000 µg/mL [4] of the same compound?
**A.** 9 mm

**Q.** And the zone of inhibition at 1000 µg/mL [5]?
**A.** 4 mm

**Q.** What about the zone of inhibition at 1000 µg/mL [6] of the same compound?
**A.** 10 mm

**Q.** What does the source list for `CC1=NN(C(=O)n2c(=O)c3ccccc3c3c4cc(Cl)ccc4[nH]c32)C(=O)C1`?
**A.** zone of inhibition at 1000 µg/mL [1]: 10 mm; Activity [8]: 67.5%; zone of inhibition at 1000 µg/mL [2]: 9 mm; zone of inhibition at 1000 µg/mL [3]: 7 mm; zone of inhibition at 1000 µg/mL [4]: 6 mm; zone of inhibition at 1000 µg/mL [5]: 13 mm; zone of inhibition at 1000 µg/mL [6]: 15 mm

**Q.** How did the zone of inhibition at 1000 µg/mL [1] turn out when `CC1=NN(C(=O)n2c(=O)c3ccccc3c3c4cc(C)ccc4[nH]c32)C(=O)C1` was run?
**A.** 8 mm

**Q.** And the Activity [7]?
**A.** 64.2%

**Q.** And the Activity [8]?
**A.** 58%

**Q.** What about the zone of inhibition at 1000 µg/mL [2] of the same compound?
**A.** 14 mm

**Q.** And the zone of inhibition at 1000 µg/mL [3]?
**A.** 10 mm

**Q.** And the zone of inhibition at 1000 µg/mL [4]?
**A.** 12 mm

**Q.** And the Activity [10]?
**A.** 56.5%

**Q.** And the zone of inhibition at 1000 µg/mL [5]?
**A.** 15 mm

**Q.** What about the zone of inhibition at 1000 µg/mL [6] of the same compound?
**A.** 18 mm

**Q.** For `COc1ccc2[nH]c3c(c2c1)c1ccccc1c(=O)n3C(=O)n1nc(-c2ccccc2)cc1-c1ccccc1`, which zone of inhibition at 1000 µg/mL [1] is on record?
**A.** 11 mm

**Q.** And the Activity [8]?
**A.** 60%

**Q.** What about the zone of inhibition at 1000 µg/mL [2] of the same compound?
**A.** 17 mm

**Q.** And the zone of inhibition at 1000 µg/mL [3]?
**A.** 11 mm

**Q.** And the zone of inhibition at 1000 µg/mL [4]?
**A.** 9 mm

**Q.** And the zone of inhibition at 1000 µg/mL [5]?
**A.** 15 mm

**Q.** And the zone of inhibition at 1000 µg/mL [6]?
**A.** 17 mm

**Q.** With `Cc1ccc2[nH]c3c(c2c1)c1ccccc1c(=O)n3C(=O)n1nc(C)cc1C` as the compound, how does the zone of inhibition at 1000 µg/mL [1] read?
**A.** 11 mm

**Q.** What about the Activity [9] of the same compound?
**A.** 64.7%

**Q.** And the zone of inhibition at 1000 µg/mL [2]?
**A.** 16 mm

**Q.** And the zone of inhibition at 1000 µg/mL [3]?
**A.** 13 mm

**Q.** And the zone of inhibition at 1000 µg/mL [4]?
**A.** 8 mm

**Q.** What about the zone of inhibition at 1000 µg/mL [5] of the same compound?
**A.** 11 mm

**Q.** And the zone of inhibition at 1000 µg/mL [6]?
**A.** 10 mm

**Q.** `OC(Cn1cncn1)(Cn1cncn1)c1ccc(F)cc1F` [FLUCONAZOLE] was tested. Which zone of inhibition at 1000 µg/mL [2] did it give?
**A.** 19 mm

**Q.** What about the zone of inhibition at 1000 µg/mL [4] of the same compound?
**A.** 18 mm

**Q.** And the zone of inhibition at 1000 µg/mL [5]?
**A.** 18 mm

**Q.** How did the zone of inhibition at 1000 µg/mL [1] turn out when `Cc1ccc2[nH]c3c(c2c1)c1ccccc1c(=O)n3C(=O)n1nc(-c2ccccc2)cc1-c1ccccc1` was run?
**A.** 9 mm

**Q.** What about the Activity [7] of the same compound?
**A.** 56.9%

**Q.** What about the Activity [8] of the same compound?
**A.** 56.2%

**Q.** What about the zone of inhibition at 1000 µg/mL [2] of the same compound?
**A.** 13 mm

**Q.** And the zone of inhibition at 1000 µg/mL [3]?
**A.** 5 mm

**Q.** And the zone of inhibition at 1000 µg/mL [4]?
**A.** 15 mm

**Q.** And the zone of inhibition at 1000 µg/mL [5]?
**A.** 4 mm

**Q.** And the zone of inhibition at 1000 µg/mL [6]?
**A.** 13 mm

**Q.** `COc1ccc2[nH]c3c(c2c1)c1ccccc1c(=O)n3C(=O)n1nc(C)cc1C` was tested. Which zone of inhibition at 1000 µg/mL [1] did it give?
**A.** 8 mm

**Q.** What about the zone of inhibition at 1000 µg/mL [2] of the same compound?
**A.** 8 mm

**Q.** What about the zone of inhibition at 1000 µg/mL [3] of the same compound?
**A.** 11 mm

**Q.** What about the zone of inhibition at 1000 µg/mL [4] of the same compound?
**A.** 10 mm

**Q.** What about the Activity [10] of the same compound?
**A.** 53.8%

**Q.** And the zone of inhibition at 1000 µg/mL [5]?
**A.** 4 mm

**Q.** And the zone of inhibition at 1000 µg/mL [6]?
**A.** 10 mm

**Q.** Which results are given for `CN[C@@H]1[C@H](O[C@H]2[C@H](O[C@H]3[C@H](O)[C@@H](O)[C@H](N=C(N)N)[C@@H](O)[C@@H]3N=C(N)N)O[C@@H](C)[C@]2(O)C=O)O[C@@H](CO)[C@H](O)[C@H]1O` [STREPTOMYCIN]?
**A.** zone of inhibition at 1000 µg/mL [1]: 20 mm; zone of inhibition at 1000 µg/mL [3]: 19 mm; zone of inhibition at 1000 µg/mL [6]: 22 mm
